In paper PMC11280343, “Rubus urticifolius Compounds with Antioxidant Activity, and Inhibition Potential against Tyrosinase, Melanin, Hyaluronidase, Elastase, and Collagenase” (Pharmaceuticals, 2024):
Read-outs that look alike come from different tables or passages of the source.

How the values were obtained:
NF-κB [1] = experiment: NF-κB inhibition assay (LPS-stimulated), THP-1; assay type: cell-based; conditions: Homo sapiens, read-out: NF-κB Inhibition at 72 h IC50 ± SEM
Procedure: (§1) To determine the anti-inflammatory activity of the samples (at the same concentration as in the viability assay), NF-κB inhibition assay was used, following the protocol carried out by Apaza Ticona et al.. Cells were cultured in 96-well plates (1 × 10^6 cells/well). […] Absorbance was measured at 450 nm using a microplate reader.

Nrf2 = Nrf2 activation assay, THP-1; assay type: cell-based
Procedure: as §1, with “antioxidant response” for “anti-inflammatory activity”, “Nrf2 activation” for “NF-κB inhibition”, “540” for “450”

NF-κB [2] = experiment: NF-κB inhibition assay (LPS-stimulated), WS1; assay type: cell-based; conditions: Homo sapiens, 72 h, read-out: NF-κB Inhibition at 72 h IC50 ± SEM
Procedure: as §1

[3] = tested on: melanin production in HMCB cells; experiment: Melanin content assay; assay type: cell-based; conditions: Homo sapiens, 12 h
Procedure: as §1, with “anti-melanogenic” for “anti-inflammatory”, “melanin” for “NF-κB”, “HMCB cells” for “Cells”, “405” for “450”

tyrosinase in HMCB cells = target: T1, tyrosinase in HMCB cells (Homo sapiens, UniProt P14679); experiment: Cellular tyrosinase assay (L-DOPA as substrate); assay type: cell-based
T1 construct: endogenous in cells; host or cells: HMCB cells
T1 sequence (P14679 19-529): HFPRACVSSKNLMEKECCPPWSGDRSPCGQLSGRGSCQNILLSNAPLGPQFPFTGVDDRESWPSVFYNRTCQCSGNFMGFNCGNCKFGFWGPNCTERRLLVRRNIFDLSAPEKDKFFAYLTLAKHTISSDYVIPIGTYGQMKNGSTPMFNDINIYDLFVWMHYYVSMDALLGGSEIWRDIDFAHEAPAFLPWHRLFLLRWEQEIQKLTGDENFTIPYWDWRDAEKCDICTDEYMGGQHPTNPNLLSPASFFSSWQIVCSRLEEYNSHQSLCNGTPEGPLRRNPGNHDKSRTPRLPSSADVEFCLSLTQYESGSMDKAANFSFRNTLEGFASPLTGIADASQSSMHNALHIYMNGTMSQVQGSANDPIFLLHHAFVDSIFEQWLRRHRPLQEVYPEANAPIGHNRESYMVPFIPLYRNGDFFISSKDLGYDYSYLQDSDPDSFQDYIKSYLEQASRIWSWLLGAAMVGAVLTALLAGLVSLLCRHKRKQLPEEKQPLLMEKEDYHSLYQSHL
Procedure: as §1, with “anti-tyrosinase” for “anti-inflammatory”, “tyrosinase” for “NF-κB”, “HMCB cells” for “Cells”, “475” for “450”

[4] = NR viability assay, THP-1; assay type: cell-based, Homo sapiens; conditions: human
Procedure: (§2) The HEK001 (Homo sapiens cutaneous keratinocyte, CCL-2404), WS1 (Homo sapiens cutaneous fibroblast, CRL-1502), HMCB (Homo sapiens cutaneous melanoma, CRL-9607), and THP-1 (Homo sapiens peripheral blood monocyte, TIB-202) cell lines used in this study were obtained from the American Type Culture Collection (ATCC, Manassas, VA, USA). Cultivated in a Roswell Park Memorial Institute (RPMI) 1640 medium (RPMI 1640 Merck, Cat. No. R7755, New York, NY, USA) supplemented with 2 mM L-glutamine (≥99% Merck, Cat. No. 56-85-9), 10% fetal bovine serum (FBS Merck, Cat. No. TMS-016, St. Louis, MO, USA), and 10,000 units of penicillin and 10 mg streptomycin/mL (Merck, Cat. No. P4333, St. Louis, MO, USA) in culture flasks, the cells were maintained in an incubator under normoxic conditions (20–21% O2) and a humidified atmosphere (5% CO2 at 37 °C).
(§3) Mother solutions of samples (extracts, fractions, and compounds) were prepared at a concentration of […] using dimethyl sulfoxide (DMSO ≥ 99.9% Merck, Cat. No. 67-68-5, St. Louis, MO, USA) as the solvent. From these mother solutions, dilutions were prepared at concentrations ranging from 100 to 0.20 μg/mL or μM in culture medium containing 0.5% DMSO. Additionally, a negative control group consisting solely of culture medium with 0.5% DMSO was included to assess its potential cytotoxic effect on the cells.
(§4) Cell viability was evaluated using a colorimetric assay in 96-well plates, employing 3-amino-7-dimethylamino-2-methylphenazine hydrochloride salt reagent (NR, Merck, Cat. No. 553-24-2, St. Louis, MO, USA).
(§5) HEK001, WS1, HMCB, and THP-1 cell lines were cultured in 96-well plates at 37 °C with 5% CO2 until > 90% confluency was achieved (1 × 10^6 cells/well). Subsequently, the cultures were treated with sample dilutions (100–0.20 μg/mL or μM) for 72 h at 37 °C with 5% CO2 in phenol red-free RPMI. The supernatant was then discarded and the cells were washed with phosphate-buffered saline (PBS) before being incubated with […] NR (50 μg/mL; 173 μM) for 3 h at 37 °C with 5% CO2. NR labelling was performed after DMSO treatment. After incubation, the labelled sample dilutions were rapidly washed with a fixative solution composed of 1% calcium chloride (CaCl2 Merck, Cat. No. 10043-52-4, St. Louis, MO, USA) and 0.5% formaldehyde solution (≥36.0% in H2O Merck, Cat. No. 50-00-0, St. Louis, MO, USA), then diluted with 100 μL of the NR extraction solution. Finally, the plates were read at 540 nm using a microplate reader (Anthos 2020, version 2.0.5, Biochrom Ltd., Cambridge, UK).

HMCB cell line = experiment: NR viability assay, HMCB; assay type: cell-based, Homo sapiens; conditions: HMCB, NR assay, 72 h
Procedure: as §2, §3, §4, §5

HEK001 cell line = experiment: NR viability assay, HEK001; assay type: cell-based, Homo sapiens; conditions: HEK001, NR assay, 72 h
Procedure: as §2, §3, §4, §5

WS1 cell line = experiment: NR viability assay, WS1; assay type: cell-based, Homo sapiens; conditions: WS1, NR assay, 72 h
Procedure: as §2, §3, §4, §5

THP-1 cell line = experiment: NR viability assay, THP-1; assay type: cell-based, Homo sapiens; conditions: 72 h
Procedure: as §2, §3, §4, §5

[5] = Homo sapiens, THP-1, 72 h; read-out: Activation of Nrf2 production EC50
[6] = HMCB cells, read-out: Inhibitory activity of melanin production IC50
[7] = HMCB cells, L-DOPA as substrate, 12 h, read-out: Tyrosinase inhibitory activity IC50

Structure (SMILES) | IC50 (NF-κB [1]; THP-1, LPS-stimulated, 72 h) | EC50 (Nrf2; [5]) | IC50 (NF-κB [2]; WS1, LPS-stimulated) | IC50 [3, 6] | IC50 (tyrosinase in HMCB cells; [7]) | CC50 at 72 h ([4]; THP-1 cells (peripheral blood monocytes), THP-1, NR assay, 72 h, read-out: Viability CC50) | CC50 (HMCB cell line) | CC50 (HEK001 cell line) | IC50 (NF-κB [1]; THP-1, 72 h) | CC50 (WS1 cell line) | EC50 (Nrf2; Homo sapiens, THP-1, 72 h, read-out: Activation of Nrf2 production EC50) | IC50 (NF-κB [2]) | IC50 ([3]; HMCB, read-out: Inhibitory activity of melanin production IC50, HMCB cells, 12 h) | IC50 (tyrosinase in HMCB cells) | CC50 (THP-1 cell line; THP-1, NR assay, read-out: Viability CC50) | CC50 at 72 h ([4]; THP-1, NR assay, 72 h, read-out: Viability CC50) | CC50 (THP-1 cell line; human) | CC50 at 72 h ([4]; Viability CC50)
CNC(=O)c1ccccc1NC(=O)/C=C/c1ccc(OC)c(OC)c1 [Compound 1, (E)-2-(3-(3,4-dimethoxyphenyl)acrylamido)-N-methylbenzamide] | 12.7 ± 0.34 µM | 0.116 µM | 11 ± 0.67 µM | 22.2 µM | 14.2 µM | 80 µM |  |  |  |  |  |  |  |  |  |  |  | 
N#C/C(=C\c1ccc(O)cc1)C(=O)O [Compound 3, (E)-2-cyano-3-(4-hydroxyphenyl)acrylic acid] |  |  |  |  |  |  | 98.6 µM | > 100 µM | 58.8 ± 0.86 µM | > 100 µM | 0.707 µM | 53.21 ± 0.23 µM | 71.1 µM | 51.5 µM | > 100 µM | 141 µM |  | 
O=C(O)c1cc(O)c2ccccc2n1 [Compound 2, 4-hydroxyquinoline-2-carboxylic acid] | 37.2 ± 0.72 µM | 0.49 µM | 32.7 ± 0.51 µM | 44.7 µM | 33.8 µM |  |  |  |  |  |  |  |  |  |  |  | > 100 µM | 100 µM
